SMILES strings stand for the structures. Values joined by “and” are separate entries in the source; they are usually repeats but may differ in a detail not shown here. Equal entries are not always repeated. Toxic doses and inconclusive results are not listed.

The test concerns BDF1 mice, P388 leukemia ip, median survival T/C. The experiment in a line: NCI In Vivo Anticancer Drug Screen. Data for tumor model P388 Leukemia (intraperitoneal) in B6D2F1 (BDF1) mice. The following applies: endpoint: median survival time, higher = longer survival. A digest of the protocol:
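In tumour-bearing mice, survival after compound treatment is set against the vehicle group and given as a quotient.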

Setting [1] is: dose: 25.0 mg/kg/injection, schedule: Q01DX009 (ip), vehicle: saline with Tween-80.
The mark [2] stands for this setting: dose: 50.0 mg/kg/injection, schedule: Q01DX009 (ip), vehicle: saline with Tween-80.
The mark [3] stands for this setting: dose: 100.0 mg/kg/injection, schedule: Q01DX009 (ip), vehicle: saline with Tween-80.
The mark [4] stands for this setting: dose: 3.12 mg/kg/injection, schedule: Q01DX009 (ip), vehicle: saline with Tween-80.
[5] abbreviates: dose: 12.5 mg/kg/injection, schedule: Q01DX009 (ip), vehicle: saline.
Setting [6] is: dose: 25.0 mg/kg/injection, schedule: Q01DX009 (ip), vehicle: saline.
[7] abbreviates: dose: 50.0 mg/kg/injection, schedule: Q01DX009 (ip), vehicle: saline.
[8] abbreviates: dose: 50.0 mg/kg/injection, schedule: Q04DX003 (ip), vehicle: saline.
Where [9] appears, read: dose: 100.0 mg/kg/injection, schedule: Q01DX009 (ip), vehicle: saline.
Setting [10] is: dose: 100.0 mg/kg/injection, schedule: Q04DX003 (ip), vehicle: saline.

Consider `O=C(Nc1cccc(Cl)c1Cl)SCCSC(=O)Nc1cccc(Cl)c1Cl`, for which the T/C runs as follows: (dose: 12.5 mg/kg/injection, schedule: Q01DX009 (ip), vehicle: gum acacia) 118 % of control; (dose: 25.0 mg/kg/injection, schedule: Q01DX009 (ip), vehicle: gum acacia) 100 % of control; (dose: 50.0 mg/kg/injection, schedule: Q01DX009 (ip), vehicle: gum acacia) 118 % of control.
On to `Cc1ccc(C(=S)NC(=O)NS(C)(=O)=O)cc1`, for which the T/C was 106 % of control (dose: 100.0 mg/kg/injection, schedule: Q01DX001 (ip), vehicle: saline with Tween-80); 105 % of control (dose: 200.0 mg/kg/injection, schedule: Q01DX001 (ip), vehicle: saline with Tween-80); 99 % of control (dose: 400.0 mg/kg/injection, schedule: Q01DX001 (ip), vehicle: saline with Tween-80).
Regarding `COC(=O)c1ncccc1C(=O)O`, the T/C reads like this: under setting [1], 86 % of control; under setting [2], 95 % of control; under setting [3], 90 % of control.
Regarding `CCOC(=O)C1Cc2c([nH]c(=O)[nH]c2=O)OC1c1cccc(Cl)c1` (stereo not given), the T/C is, setting by setting: under setting [4], 98 % of control; (dose: 6.25 mg/kg/injection, schedule: Q01DX009 (ip), vehicle: saline with Tween-80) 96 % of control and 102 % of control; (dose: 12.5 mg/kg/injection, schedule: Q01DX009 (ip), vehicle: saline with Tween-80) 93 % of control; under setting [1], 99 % of control and 107 % of control.
On to `O=[N+]([O-])c1ccc(/C=N/c2nccs2)o1`, for which the T/C is, setting by setting: (dose: 3.12 mg/kg/injection, schedule: Q04DX003 (ip), vehicle: saline) 107 % of control; (dose: 6.25 mg/kg/injection, schedule: Q04DX003 (ip), vehicle: saline) 106 % of control and 107 % of control; under setting [5], 92 % of control; (dose: 12.5 mg/kg/injection, schedule: Q04DX003 (ip), vehicle: saline) 92 % of control and 107 % of control and 115 % of control; under setting [6], 90 % of control; (dose: 25.0 mg/kg/injection, schedule: Q04DX003 (ip), vehicle: saline) 107 % of control and 111 % of control and 115 % of control. For the same compound, the T/C under setting [7] was 94 % of control; the T/C under setting [8] was 101 % of control and 107 % of control; the T/C under setting [9] was 86 % of control; the T/C under setting [10] is 109 % of control and 110 % of control; the T/C (dose: 200.0 mg/kg/injection, schedule: Q01DX009 (ip), vehicle: saline) is 98 % of control.
Turning to `CC(=O)/C(C1=NCCC1)=C(/C)O`, the T/C under setting [6] is 109 % of control, the T/C under setting [7] was 100 % of control and the T/C under setting [9] was 100 % of control.
With `CCCCCCCCCCCCCCCCCC(=O)[O][Sn]([CH2]CCC)([CH2]CCC)[O]C(=O)CCCCCCCCCCCCCCCCC`, for the setting “dose: 12.5 mg/kg/injection, schedule: Q04DX003 (ip), vehicle: other”, the T/C was 121 % of control.
For `COc1cc2cc(c1Cl)N(C)C(=O)CC(OC(=O)C(C)N(C)C(=O)C(C)C)C1(C)OC1C(C)C1CC(O)(NC(=O)O1)C(OC)/C=C/C=C(C)C2` (stereo not given), the T/C is 165 % of control (dose: 0.2 micrograms/kg/injection, schedule: Q01DX009 (ip), vehicle: saline + alcohol); 155 % of control (dose: 0.4 micrograms/kg/injection, schedule: Q01DX009 (ip), vehicle: saline + alcohol); 190 % of control (dose: 0.8 micrograms/kg/injection, schedule: Q01DX009 (ip), vehicle: saline + alcohol); 155 % of control (dose: 1.6 micrograms/kg/injection, schedule: Q01DX009 (ip), vehicle: saline + alcohol); 155 % of control (dose: 6.2 micrograms/kg/injection, schedule: Q01DX009 (ip), vehicle: saline + alcohol); 120 % of control (dose: 12.5 micrograms/kg/injection, schedule: Q01DX009 (ip), vehicle: saline + alcohol).
`O=C(O)C1CCSS1` (stereo not given): the T/C (dose: 0.19 mg/kg/injection, schedule: Q01DX009 (ip), vehicle: saline) is 100 % of control; the T/C (dose: 0.39 mg/kg/injection, schedule: Q01DX009 (ip), vehicle: saline) was 91 % of control; the T/C (dose: 0.78 mg/kg/injection, schedule: Q01DX009 (ip), vehicle: saline) was 90 % of control and 117 % of control; the T/C (dose: 1.56 mg/kg/injection, schedule: Q01DX009 (ip), vehicle: saline) is 96 % of control and 99 % of control; the T/C (dose: 3.12 mg/kg/injection, schedule: Q01DX009 (ip), vehicle: saline) was 94 % of control; the T/C (dose: 6.25 mg/kg/injection, schedule: Q01DX009 (ip), vehicle: saline) was 94 % of control. The T/C is, setting by setting: under setting [5], 102 % of control and 106 % of control and 108 % of control; under setting [7], 87 % of control and 89 % of control; under setting [8], 103 % of control; under setting [10], 101 % of control.
Regarding `N#CS/C=C\C(N)=O`, the T/C is 100 % of control (dose: 1.5 mg/kg/injection, schedule: Q01DX009 (ip), vehicle: Klucel (hydroxypropylcellulose) (HPC)); 95 % of control (dose: 1.5 mg/kg/injection, schedule: Q04DX003 (ip), vehicle: Klucel (hydroxypropylcellulose) (HPC)); 91 % of control (dose: 3.0 mg/kg/injection, schedule: Q01DX009 (ip), vehicle: Klucel (hydroxypropylcellulose) (HPC)); 95 % of control (dose: 3.0 mg/kg/injection, schedule: Q04DX003 (ip), vehicle: Klucel (hydroxypropylcellulose) (HPC)); 89 % of control and 91 % of control (dose: 6.0 mg/kg/injection, schedule: Q01DX009 (ip), vehicle: Klucel (hydroxypropylcellulose) (HPC)); 100 % of control (dose: 6.0 mg/kg/injection, schedule: Q04DX003 (ip), vehicle: Klucel (hydroxypropylcellulose) (HPC)). Moreover, the T/C is, setting by setting: (dose: 6.25 mg/kg/injection, schedule: Q04DX003 (ip), vehicle: Klucel (hydroxypropylcellulose) (HPC)) 90 % of control; (dose: 12.5 mg/kg/injection, schedule: Q04DX003 (ip), vehicle: Klucel (hydroxypropylcellulose) (HPC)) 100 % of control.
For the compound `CCCCCC#CC1OC12CCCCC2` (stereo not given), the T/C is 124 % of control under setting [2]; 119 % of control under setting [3]; 102 % of control (dose: 200.0 mg/kg/injection, schedule: Q01DX009 (ip), vehicle: saline with Tween-80).
Regarding `C[n+]1c(-c2ccccc2)c2cc(N)ccc2c2ccc(N)cc21`, the T/C is, setting by setting: (dose: 25.0 mg/kg/injection, schedule: Q04DX003 (ip), vehicle: saline with Tween-80) 171 % of control; (dose: 50.0 mg/kg/injection, schedule: Q04DX003 (ip), vehicle: saline with Tween-80) 90 % of control.
As for `COc1cc2c3c(c1O)Oc1ccc(cc1)C[C@@H]1c4c(cc(OC)c(O)c4Oc4ccc(cc4)C[C@H]3N(C)CC2)CCN1C`, the T/C (dose: 40.0 mg/kg/injection, schedule: Q01DX010 (ip), vehicle: saline) was 95 % of control; the T/C (dose: 80.0 mg/kg/injection, schedule: Q01DX010 (ip), vehicle: saline) was 100 % of control; the T/C (dose: 160.0 mg/kg/injection, schedule: Q01DX010 (ip), vehicle: saline) is 105 % of control; the T/C (dose: 320.0 mg/kg/injection, schedule: Q01DX010 (ip), vehicle: saline) is 90 % of control.
`COC(=O)Nc1nc2ccc(C(=O)c3cccs3)cc2[nH]1`: the T/C reads like this: (dose: 20.0 mg/kg/injection, schedule: Q01DX009 (ip), vehicle: saline with Tween-80) 117 % of control; (dose: 21.6 mg/kg/injection, schedule: Q04DX003 (ip), vehicle: other) 167 % of control; (dose: 22.0 mg/kg/injection, schedule: Q04DX003 (ip), vehicle: other) 153 % of control; (dose: 36.0 mg/kg/injection, schedule: Q04DX003 (ip), vehicle: other) 199 % of control; (dose: 40.0 mg/kg/injection, schedule: Q01DX009 (ip), vehicle: saline with Tween-80) 183 % of control; (dose: 50.0 mg/kg/injection, schedule: Q04DX003 (ip), vehicle: Klucel (hydroxypropylcellulose) (HPC)) 163 % of control and 173 % of control. Besides, the T/C reads like this: (dose: 60.0 mg/kg/injection, schedule: Q01DX009 (ip), vehicle: saline with Tween-80) 225 % of control; (dose: 60.0 mg/kg/injection, schedule: Q04DX003 (ip), vehicle: other) 274 % of control; (dose: 75.0 mg/kg/injection, schedule: Q04DX003 (ip), vehicle: Klucel (hydroxypropylcellulose) (HPC)) 173 % of control and 175 % of control; (dose: 75.0 mg/kg/injection, schedule: Q04DX003 (ip), vehicle: saline with Tween-80) 193 % of control; (dose: 100.0 mg/kg/injection, schedule: Q04DX003 (ip), vehicle: Klucel (hydroxypropylcellulose) (HPC)) 165 % of control and 184 % of control.
As for `Cc1ccc2nc(-c3ccc(CSC(=N)N)cc3)oc(=O)c2c1`, the T/C (dose: 0.78 mg/kg/injection, schedule: Q01DX009 (ip), vehicle: saline with Tween-80) is 96 % of control; the T/C (dose: 1.56 mg/kg/injection, schedule: Q01DX009 (ip), vehicle: saline with Tween-80) is 99 % of control; the T/C under setting [4] is 96 % of control.

(Values after PubChem BioAssay AID328 (DTP/NCI, 2004).)
